US20250296960A1, “PEPTIDE COMPOSITIONS AND METHODS OF USE THEREOF” (priority 2022, published 2025)
Entries after “also recorded” stand apart in the source; their conditions may differ. Where two headings read alike, the source gives them in different places. Numbered stars: 1 amine (or outer) side, 2 acyl side, 3 side chain; on linkers, the order of the positions; unused ones are H or OH. Square brackets hold non-standard residues; d marks the D form. Side chains are listed from the residue outwards. Peptide text beside a SMILES is read from it. * marks the point of attachment. C18 diacid = O=C(O)CCCCCCCCCCCCCCCCC(=O)*; γGlu = O=C(O)[C@H](CCC(=O)[*:2])N[*:1]; αMeR = C[C@](N)(CCCNC(=N)N)C(=O)O; AEEA = NCCOCCOCC(=O)O; Aib = CC(C)(N)C(=O)O

Legend:
[1] = In vivo efficacy in mAMLN (obese and NASH) mice, 4 weeks; settings: after 4 weeks
human GLP-1R = molecular target: T1, human GLP-1R (Homo sapiens, UniProt P43220); assay: cAMP assay (HitHunter cAMP) in GLP-1R-expressing CHO-K1 cells (GLP-1R+ cells); type: cell-based
T1 construct: host or cells: CHO-K1
T1 sequence (P43220 24-463): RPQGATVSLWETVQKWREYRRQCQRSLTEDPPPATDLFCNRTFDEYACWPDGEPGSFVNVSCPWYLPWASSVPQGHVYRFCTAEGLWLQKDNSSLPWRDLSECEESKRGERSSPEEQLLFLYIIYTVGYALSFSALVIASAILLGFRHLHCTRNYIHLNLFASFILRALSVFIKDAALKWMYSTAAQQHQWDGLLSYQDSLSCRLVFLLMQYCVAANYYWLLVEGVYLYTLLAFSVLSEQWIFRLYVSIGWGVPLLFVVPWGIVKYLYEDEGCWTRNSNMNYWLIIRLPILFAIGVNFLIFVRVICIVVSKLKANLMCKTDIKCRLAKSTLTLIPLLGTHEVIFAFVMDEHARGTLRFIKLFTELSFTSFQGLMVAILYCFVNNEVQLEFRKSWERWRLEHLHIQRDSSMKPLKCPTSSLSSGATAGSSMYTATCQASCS
How it was run: (§1)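 Luminescent cAMP read-out: after 30 min peptide stimulation at 37 °C in cAMP assay buffer, receptor-expressing CHO-K1 cells (seeded 7×10^3/well the night before) received antibody and detection reagents for 1 h, then Solution A for 3 h, at room temperature in the dark.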

human GCGR = molecular target: T2, human GCGR (Homo sapiens, UniProt P47871); assay: cAMP assay (HitHunter cAMP) in GCGR-expressing CHO-K1 cells (GCGR+ cells); type: cell-based; settings: Table 36
T2 construct: host or cells: CHO-K1
T2 sequence (P47871 26-477): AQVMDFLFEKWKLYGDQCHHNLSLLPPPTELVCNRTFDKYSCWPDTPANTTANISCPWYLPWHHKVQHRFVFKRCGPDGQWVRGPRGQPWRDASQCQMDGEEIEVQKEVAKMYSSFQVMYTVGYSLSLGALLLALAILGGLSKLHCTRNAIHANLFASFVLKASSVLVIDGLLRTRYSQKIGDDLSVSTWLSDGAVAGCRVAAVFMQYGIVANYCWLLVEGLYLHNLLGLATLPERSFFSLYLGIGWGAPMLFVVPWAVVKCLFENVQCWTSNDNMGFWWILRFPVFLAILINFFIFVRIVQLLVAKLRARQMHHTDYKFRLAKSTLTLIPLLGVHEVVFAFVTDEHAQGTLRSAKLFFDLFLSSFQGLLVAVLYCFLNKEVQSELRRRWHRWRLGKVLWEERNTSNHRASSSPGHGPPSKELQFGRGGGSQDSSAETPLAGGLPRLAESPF
How it was run: as §1

[2] = In vivo efficacy in CDA-HFD (NASH) mice, 4 weeks; settings: Example 16
Experimental: This study was conducted to evaluate the efficacy of SEQ ID NOs. […] SEQ ID NOs. The peptides were delivered at 0.02% PS80 in PBS and dosing volume was 10 mL/kg. Control group was administered by vehicle without peptide.
Body weight changes were monitored Q2D; serum chemistry (end); hepatic TG (end); and histological analysis (end). […]

human GIPR = molecular target: T3, human GIPR (Homo sapiens, UniProt P48546); assay: cAMP assay (HitHunter cAMP) in GIPR-expressing CHO-K1 cells (GIPR+ cells); type: cell-based
T3 construct: host or cells: CHO-K1
T3 sequence (P48546 22-466): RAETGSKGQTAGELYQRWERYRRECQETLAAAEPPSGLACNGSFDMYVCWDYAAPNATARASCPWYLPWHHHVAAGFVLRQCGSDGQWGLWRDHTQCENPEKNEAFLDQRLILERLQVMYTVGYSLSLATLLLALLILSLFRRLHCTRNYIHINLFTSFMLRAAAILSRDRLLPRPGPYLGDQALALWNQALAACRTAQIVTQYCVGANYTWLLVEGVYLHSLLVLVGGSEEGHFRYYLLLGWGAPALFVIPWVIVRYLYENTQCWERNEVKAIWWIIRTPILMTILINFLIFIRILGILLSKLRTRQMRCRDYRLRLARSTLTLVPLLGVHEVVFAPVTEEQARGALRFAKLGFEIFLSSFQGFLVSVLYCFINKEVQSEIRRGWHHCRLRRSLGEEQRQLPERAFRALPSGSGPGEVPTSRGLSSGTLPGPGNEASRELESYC
How it was run: as §1

trypsin = type: in vitro ADME
[3] = type: in vitro ADME; settings: pH 7.8
FaSSIF/P = assay: In vitro enzymatic stability against FaSSIF/P (pancreatin in FaSSIF, pH 6.5); type: in vitro ADME
[4] = as above; type: in vitro ADME; settings: simulated gi fluid, pH 6.5, Half-life (min), FaSSIF/P
[5] = molecular target: human glucose-dependent insulinotropic polypeptide receptor (GIPR), expressed on CHO-K1 cells (human) (UniProt P48546); assay: cell-based or functional assay
[6] = molecular target: human glucose-dependent insulinotropic polypeptide receptor (GIPR), expressed on CHO-K1 cells (human) (UniProt P48546); assay: cell-based or functional assay; remark: listed apart in the source

Compound: CSCC[C@H](NC(=O)[C@H](Cc1ccc(O)cc1)NC(=O)[C@H](CC(=O)O)NC(=O)[C@H](CC(C)C)NC(=O)[C@H](CC(C)C)NC(=O)[C@H](CCCCNC(=O)COCCOCCNC(=O)COCCOCCNC(=O)CC[C@H](NC(=O)CCCCCCCCCCCCCCCCC(=O)O)C(=O)O)NC(=O)[C@H](CO)NC(=O)[C@H](Cc1ccc(O)cc1)NC(=O)[C@H](CC(=O)O)NC(=O)[C@H](CO)NC(=O)[C@@H](NC(=O)[C@H](Cc1ccccc1)NC(=O)[C@@H](NC(=O)CNC(=O)[C@H](CCC(N)=O)NC(=O)C(C)(C)NC(=O)[C@@H](N)Cc1ccc(O)cc1)[C@@H](C)O)[C@@H](C)O)C(=O)N[C@@H](CCSC)C(=O)N[C@@H](CCC(N)=O)C(=O)N[C@@](C)(CCCNC(=N)N)C(=O)N[C@@H](CC(=O)O)C(=O)N[C@@H](Cc1ccccc1)C(=O)N[C@H](C(=O)N[C@@H](CCC(N)=O)C(=O)N[C@@H](Cc1c[nH]c2ccccc12)C(=O)N[C@@H](CC(C)C)C(=O)N[C@@H](CC(C)C)C(=O)N[C@@H](CCC(=O)O)C(=O)NCC(=O)NCC(=O)N1CCC[C@H]1C(=O)N[C@@H](CO)C(=O)N[C@@H](CO)C(=O)NCC(=O)N[C@@H](C)C(=O)N1CCC[C@H]1C(=O)N1CCC[C@H]1C(=O)N1CCC[C@H]1C(=O)N[C@@H](CO)C(N)=O)C(C)C [compound 101] (H-Y[Aib]QGTFTSDYSK([AEEA-AEEA-γGlu-C18 diacid])LLDYMMQ[αMeR]DFVQWLLEGGPSSGAPPPS-NH2; N-terminus assumed)
- NAS score, in words [1]: statistically decreased more than the level of tirzepatide
- hepatic steatosis (histological score), in words [1]: significantly reduced
- liver weight, visceral fat weight, liver enzymes, and liver steatosis compared to vehicle-treated control, in words [1]: significantly reduced
- activity on GLP-1R compared to SEQ ID NO. 77, in words (human GLP-1R; Example 13): increased
- Ratio vs. GLP-1R, GLP-1R (human GLP-1R; Table 36): 100
- Relative % to native ligand, GLP-1R (human GLP-1R; Table 36): 722%
- Ratio vs. GLP-1R, GCGR (human GCGR): 12
- Relative % to native ligand, GCGR (human GCGR): 89%
- efficacy in the NASH model, in words [2]: most excellent efficacy
- hepatic steatosis score compared to CDA-HFD control, in words [2]: significantly reduced
- scores of hepatocytes inflammation and NAS score, in words [2]: statistically reduced; also recorded: most decreased
- body weight compared to vehicle-treated control, in words ([2]; 20 nmol/kg s.c. Q2D, 4 weeks): reduce body weight; also recorded: greatest weight loss
- liver enzymes and liver steatosis compared to vehicle-treated control, in words ([2]; end of treatment): reduce liver enzymes and liver steatosis significantly
- activity on GIPR compared to SEQ ID NO. 77, in words (human GIPR; Example 13): increased
- Ratio vs. GLP-1R, GIPR (human GIPR; Table 36): 65
- Relative % to native ligand, GIPR (human GIPR; Table 36): 472%
- stability against trypsin compared with SEQ ID NO. 77, in words (trypsin): improved stability
- half-life [3]: > 7.23 h
- stability against FaSSIF/P compared with SEQ ID NO. 77, in words (FaSSIF/P): improved stability
- half-life [4]: 1.18 h

Compound: GIP (native ligand) (from UniProt P09681 52-93)
- EC50 (nM), cAMP assay [5]: 2.03 nM
- EC50 (nM), cAMP assay [6]: 0.732 nM
- EC50, c-AMP release (FIG. 8C) [6]: 0.24 nM
- EC50, c-AMP release (FIG. 9C) [6]: 0.24 nM
- EC50, cAMP release (FIG. 7C) [6]: 1.78 nM
- Percentage change in EC50 relative to GIP at human GIPR (%) [6]: 100%
